# Publication PMC6582431 (Chemmedchem, 2018)
# What was measured:
# FAAH [1] = target: T1, FAAH (Rattus norvegicus, UniProt P97612); assay: In vitro FAAH activity in rat brain homogenates/membranes; type: biochemical; settings: for FAAH activity, percent of control, 100 nM / FAAH activity, percent of control, 10 nM: rat brain homogenates, 15 min pre-incubation
# T1 sequence (P97612 1-579): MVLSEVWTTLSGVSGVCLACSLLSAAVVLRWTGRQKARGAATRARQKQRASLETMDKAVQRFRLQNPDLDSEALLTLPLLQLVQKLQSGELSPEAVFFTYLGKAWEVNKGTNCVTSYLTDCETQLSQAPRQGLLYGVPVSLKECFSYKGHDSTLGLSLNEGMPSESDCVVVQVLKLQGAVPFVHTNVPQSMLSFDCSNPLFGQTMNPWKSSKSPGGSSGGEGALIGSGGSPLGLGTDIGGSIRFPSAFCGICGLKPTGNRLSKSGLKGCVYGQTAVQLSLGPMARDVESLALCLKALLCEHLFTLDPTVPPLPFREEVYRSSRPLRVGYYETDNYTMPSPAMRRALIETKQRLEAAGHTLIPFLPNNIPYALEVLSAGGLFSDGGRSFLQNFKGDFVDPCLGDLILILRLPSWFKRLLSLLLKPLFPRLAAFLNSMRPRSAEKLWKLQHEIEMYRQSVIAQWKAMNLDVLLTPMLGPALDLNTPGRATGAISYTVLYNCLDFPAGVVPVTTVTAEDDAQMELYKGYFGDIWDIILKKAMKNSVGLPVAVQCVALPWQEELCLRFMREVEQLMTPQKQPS
# FAAH [2] = target: T2, FAAH (Mus musculus, UniProt O08914); assay: In vivo FAAH inhibition, liver, after oral administration to mice
# T2 sequence (O08914 1-579): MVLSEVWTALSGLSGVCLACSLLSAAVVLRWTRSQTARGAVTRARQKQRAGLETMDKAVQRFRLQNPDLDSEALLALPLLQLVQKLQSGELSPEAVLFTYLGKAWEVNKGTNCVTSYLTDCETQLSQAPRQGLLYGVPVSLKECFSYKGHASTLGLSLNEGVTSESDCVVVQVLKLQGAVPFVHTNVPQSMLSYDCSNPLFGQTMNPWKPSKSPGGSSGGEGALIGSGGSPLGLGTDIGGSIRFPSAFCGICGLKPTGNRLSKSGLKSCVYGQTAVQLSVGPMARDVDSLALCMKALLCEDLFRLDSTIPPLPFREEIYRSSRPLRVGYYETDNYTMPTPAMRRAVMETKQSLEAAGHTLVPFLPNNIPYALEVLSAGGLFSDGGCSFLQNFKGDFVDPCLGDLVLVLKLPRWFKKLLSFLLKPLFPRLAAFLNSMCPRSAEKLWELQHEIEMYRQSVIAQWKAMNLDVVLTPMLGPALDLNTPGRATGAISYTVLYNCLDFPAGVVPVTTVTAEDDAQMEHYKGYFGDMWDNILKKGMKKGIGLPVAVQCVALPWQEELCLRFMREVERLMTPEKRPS
# carboxylesterases (CEs) = assay: CE activity in rat liver microsomes; type: biochemical; settings: for CEs (10 μM), percent of control: 10 μM in rat liver microsomes; for CEs activity, percent of control: C inhib=10 μM in rat liver microsomes, Table 2
# MAGL = target: T3, MAGL (Rattus norvegicus, UniProt Q8R431); assay: MAGL activity in rat cerebellum cytosol; type: biochemical; settings: for MAGL (100 μM), percent of control / MAGL activity, percent of control: C inhib=100 μM in rat cerebellum cytosol; for MAGL activity, percent of control: Table 2
# T3 sequence (Q8R431 1-303): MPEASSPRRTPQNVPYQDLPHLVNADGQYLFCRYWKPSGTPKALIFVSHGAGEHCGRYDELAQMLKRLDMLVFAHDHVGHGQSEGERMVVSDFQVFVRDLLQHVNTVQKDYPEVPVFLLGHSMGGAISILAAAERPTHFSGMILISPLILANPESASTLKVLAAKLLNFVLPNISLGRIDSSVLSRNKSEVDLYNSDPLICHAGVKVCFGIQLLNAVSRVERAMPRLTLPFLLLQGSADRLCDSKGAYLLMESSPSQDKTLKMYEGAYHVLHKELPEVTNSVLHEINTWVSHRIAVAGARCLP
# FAAH [3] = target: T2, FAAH; assay: In vivo FAAH inhibition, brain, after oral administration to mice
# [4] = 0.1 mg kg^−1 p.o. in mice, 8 h after administration, Table 5
# [5] = 30 mg kg^−1 p.o. in mice, 1 h after administration, Table 2
# [6] = 0.1 mg kg^−1 p.o. in mice, 8 h after administration, Table 4
# [7] = 0.1 mg kg^−1 p.o., mice, post-dose
# [8] = 30 mg kg^−1 p.o. in mice, 1 h after administration (footnote f), Table 5
Structure (SMILES),"FAAH activity, percent of control, 100 nM (FAAH [1]; Table 5)","FAAH activity, percent of control, 10 nM (FAAH [1]; Table 2)","FAAH activity, percent of control, 100 nM (FAAH [1]; Table 2)","MAGL activity, percent of control (MAGL)","CEs (10 μM), percent of control (carboxylesterases (CEs); Table 5)","CEs activity, percent of control (carboxylesterases (CEs))",other results
"CN(C(=O)n1nnc2ccccc21)c1ccc(F)cc1F [Compound 10 b, N ‐(2,4‐Difluorophenyl)‐N‐methyl‐1H‐benzo[d][1,2,3]triazole‐1‐carboxamide]",–,35±3% of control,2±1% of control,70±6% of control,–,40±1% of control,–
"CN(C(=O)n1cnc(-c2cccnc2)c1)C1CCCCC1 [Compound 8 k, N ‐Cyclohexyl‐N‐methyl‐4‐(pyridin‐3‐yl)‐1H‐imidazole‐1‐carboxamide]",75±7% of control,–,–,–,97±3% of control,–,"Liver FAAH activity, percent of control (FAAH [2]; [4]): 13±4% of control; MAGL (100 μM), percent of control (MAGL; Table 5): 94±4% of control; Brain FAAH activity, percent of control (FAAH [3]; [4]): 75±16% of control"
C[C@@H]1CCC[C@H](C)N1C(=O)n1nnc2ccccc21 [Compound 10 n],–,–,71±7% of control,35±5% of control,–,28±1% of control,–
"O=C(Nc1cccnc1)N1CCC(Cc2cccc(Oc3ccc(C(F)(F)F)cn3)c2)CC1 [Compound 3, PF3845, reference compound]",–,101±31% of control,7±4% of control,87±12% of control,–,95±17% of control,"Liver FAAH activity, percent of control (FAAH [2]; [6]): 7±4% of control; time of maximum inhibitory effect in the liver (FAAH [2]; [7]): 1 h; Liver FAAH activity, percent of control (FAAH [2]; [5]): 2±2% of control; inhibition at 30 mg/kg (FAAH [2]; mouse, po, read-out: FAAH inhibition in the liver): > 90%; CEs (10 μM), percent of control (carboxylesterases (CEs); Table 4): 95±17% of control; MAGL (100 μM), percent of control (MAGL; Table 4): 87±12% of control; Brain FAAH activity, percent of control (FAAH [3]; [6]): 5±1% of control; time of maximal inhibitory effect in the brain (t max) (FAAH [3]; [7]): 8 h; Brain FAAH activity, percent of control (FAAH [3]; [5]): 1±0% of control; FAAH inhibition in the brain (FAAH [3]; 30 mg kg^−1 p.o., mice, 1 h post-administration): over 90%"
"CN(C(=O)n1ccnc1)c1ccccc1 [Compound 8 a, N ‐Methyl‐N‐phenyl‐1H‐imidazole‐1‐carboxamide]",–,–,–,–,–,–,inhibition at 10 µM (FAAH [1]; read-out: FAAH inhibition): 88%
O=C(N1CCN(c2ccccc2)CC1)n1nnc2ccccc21 [Compound 10 j],–,1±0% of control,0±0% of control,12±4% of control,–,28±2% of control,"Liver FAAH activity, percent of control (FAAH [2]; [5]): 30±5% of control; Brain FAAH activity, percent of control (FAAH [3]; [5]): 88±7% of control"
O=C(N1CCC(Cc2ccccc2)CC1)n1nnc2ccccc21 [Compound 10 h],–,0±0% of control,0±0% of control,7±5% of control,–,24±2% of control,"Liver FAAH activity, percent of control (FAAH [2]; [5]): 6±1% of control; Brain FAAH activity, percent of control (FAAH [3]; [5]): 8±1% of control"
CN(Cc1ccccc1)C(=O)n1nnc2ccccc21 [Compound 10 f],–,0±0% of control,0±0% of control,2±2% of control,–,24±1% of control,"Liver FAAH activity, percent of control (FAAH [2]; [5]): 6±2% of control; Brain FAAH activity, percent of control (FAAH [3]; [5]): 1±0% of control"
CC1(C)COCN1C(=O)n1nnc2cccnc21 [Compound 11 e],–,–,–,–,–,–,"Liver FAAH activity, percent of control (FAAH [2]; [6]): 14±7% of control; inhibition at 0.1 mg/kg (FAAH [2]; mouse, po, read-out: peripheral (liver) FAAH inhibition): > 85%; CEs (10 μM), percent of control (carboxylesterases (CEs); Table 4): 61±11% of control; MAGL (100 μM), percent of control (MAGL; Table 4): 72±5% of control; cerebral (brain) FAAH inhibition (FAAH [3]; 0.1 mg kg^−1, mouse, p.o., 8 h post-dose): over 85%; Brain FAAH activity, percent of control (FAAH [3]; [6]): 12±4% of control"
COc1cc(OC)cc(N(C)C(=O)n2nnc3ccccc32)c1 [Compound 10 c],–,–,76±0% of control,–,–,–,–
CC1(C)OCCN1C(=O)n1nnc2ccccc21 [Compound 10 o],–,71±2% of control,17±3% of control,84±25% of control,–,60±7% of control,–
O=C(N1CCCCCCC1)n1nnc2ccccc21 [Compound 10 m],–,62±6% of control,15±1% of control,58±6% of control,–,30±2% of control,–
"O=C(Nc1ccc(F)cc1F)n1nnc2ccccc21 [Compound 10 d, N ‐(2,4‐Difluorophenyl)‐1H‐benzo[d][1,2,3]triazole‐1‐carboxamide]",–,–,100±5% of control,–,–,–,–

# Now from value to molecule, other results behind:
"FAAH activity, percent of control, 100 nM (FAAH [1]; Table 5)","FAAH activity, percent of control, 10 nM (FAAH [1]; Table 2)","FAAH activity, percent of control, 100 nM (FAAH [1]; Table 2)","MAGL activity, percent of control (MAGL)",Structure (SMILES),"CEs (10 μM), percent of control (carboxylesterases (CEs); Table 5)","CEs activity, percent of control (carboxylesterases (CEs))",other results
37±3% of control,–,–,–,CN(C(=O)n1cnc(-c2ccccc2)c1)C1CCCCC1 [Compound 8 j],90±11% of control,–,"Liver FAAH activity, percent of control (FAAH [2]; [4]): 33±2% of control; MAGL (100 μM), percent of control (MAGL; Table 5): 91±3% of control; Brain FAAH activity, percent of control (FAAH [3]; [4]): 86±5% of control"
94±10% of control,–,–,–,"CC1(C)COCN1C(=O)n1cnc(-c2ccccc2)c1 [Compound 8 f, (4,4‐Dimethyloxazolidin‐3‐yl)(4‐phenyl‐1H‐imidazol‐1‐yl)methanone]",95±6% of control,–,"Liver FAAH activity, percent of control (FAAH [2]; [4]): 53±6% of control; MAGL (100 μM), percent of control (MAGL; Table 5): 92±3% of control; Brain FAAH activity, percent of control (FAAH [3]; [4]): 92±7% of control"
–,42±12% of control,1±0% of control,73±4% of control,CN(C(=O)n1nnc2ccccc21)c1ccccc1 [Compound 10 a],–,31±2% of control,"IC50 (FAAH [1]): 7 nM; Liver FAAH activity, percent of control (FAAH [2]; [5]): 34±5% of control; IC50 (carboxylesterases (CEs); read-out: CE IC50, rat liver microsomes): > 1000 nM; IC50 (MAGL): > 100000 nM; Brain FAAH activity, percent of control (FAAH [3]; [5]): 34±9% of control"
104±18% of control,–,–,–,CN(C(=O)n1cnc(-c2ccccc2)c1)C1CCOCC1 [Compound 8 i],96±7% of control,–,"Liver FAAH activity, percent of control (FAAH [2]; [4]): 12±4% of control; MAGL (100 μM), percent of control (MAGL; Table 5): 96±1% of control; Brain FAAH activity, percent of control (FAAH [3]; [4]): 38±18% of control"
1±0% of control,–,–,–,O=C(N1CCN(Cc2ccccc2)CC1)n1cnc(-c2ccccc2)c1 [Compound 8 g],52±2% of control,–,"MAGL (100 μM), percent of control (MAGL; Table 5): 61±6% of control"
84±7% of control,–,–,–,"CN(C(=O)n1cnc(-c2ccccc2)c1)c1ccccc1 [Compound 8 b, N ‐Methyl‐N,4‐diphenyl‐1H‐imidazole‐1‐carboxamide]",105±5% of control,–,"Liver FAAH activity, percent of control (FAAH [2]; [8]): 11±5^[f] Percent of control; Brain FAAH activity, percent of control (FAAH [3]; [8]): 14±17^[f] Percent of control"
